In data set [1] the target is T1, human prolyl hydroxylase 2 (PHD2) (Homo sapiens, UniProt Q9GZT9).
T1 construct: (181-426); made in house
Put plainly: Fluorescence polarization (FP) competition assay of PHD2. The conditions noted are these: purified compounds, 20 nM PHD2 (181-426), 30 nM probe, Cheng-Prusoff, mean±SD, read-out: Ki, binding affinity for PHD2. The procedure:
2.1 Fluorescence polarization (FP) competition assay of PHD2 [4]
FP assays were performed using a SPARK Multi-Mode Microplate Reader (Tecan) with excitation and emission filters appropriate for the fluorophore used in the binding experiment. Fluorescence polarization experiments were performed in 384-well, flat bottom, black assay plates (#3575, Corning) in a final volume of 60 µL. The final assay buffer contained: 30 nM fluorescence Probe, 20 nM PHD2 (181-426), 10 mM HEPES, pH 7.4, 150 mM NaCl, 0.05% Tween-20, and at the 1% DMSO (except for DMSO tolerance experiments, in which different DMSO concentrations were used as indicated). All plates measured in fluorescence polarization assays were incubated for a minimum of 30 min at RT. Fluorescence polarization was measured from the top of the well with a Tecan SPARK plate reader with polarized filters and optical modules for fluorescein (λex = 485 nm ± 25 nm, λem = 535 nm ± 25 nm). The standard error of the mean (SEM) values, were calculated by dividing the sample standard deviation by the square root of the sample size and are recorded as ± values for IC 50. Dose-dependent experiments were performed in th e same manner using at least 10 concentrations of the test compounds in 3 -fold serial dilutions from 100 µM. For each assay, negative controls (equivalent to 0% displacement) contained the fluorescent ligand, PHD2 (181 -426), and 20 µL FP buffer; blank cont rols contained only the fluorescent ligand and 40 µL buffer.
The reaction mixtures were incubated at RT for 60 min, then total fluorescence and fluorescence polarization measurements wer e taken. The percentage inhibition was calculated using Equation 1, where mPfree is the signal for the free probe (blank control) and mPbound is the signal for the bound probe (negative control).
IC50s were determined for duplicate measurements by non-linear least-squares analysis using GraphPad Prism 8.0.
The Ki values of the inhibitors were calculated using the Cheng-Prusoff equation.[5] Cheng-Prusoff equation: Ki = IC50 / (1 + [L]/Kd)
The Kd value was determined using a constant concentration of probe and titrating with PHD2 protein at increasing concentrations. [L] represents the concentration of the […] used in the FP assay. […]

For the next data set, the system named is ICR mice. The experiment in a line: Subacute oral toxicity assay. Type of data set: in vivo. The procedure:
6. Subacute and acute oral toxicity assay
The experimental mice (SPF, ICR, male and female) were obtained from Nantong University (permit number: SCXK (Su) 2019-0001). All animal related experiments were conducted under China Pharmaceutical University guidelines (certification of using the housing facility for laboratory animals: SYXK (Su) 2018-0019) IACUC approved protocols in compliance with the guide for the care and use of laboratory animals (number: 202013705).
6.1 Subacute oral toxicity assay
ICR mice were divided into 8 groups (n = 6), including 15 mg·kg-1, 50 mg·kg-1, 100 mg·kg-1 and vehicle groups for males and females, respectively. […] The body weight of the mice was recorded. […]
Experimental mice were treated with 17 through oral administration once. Body weight and the heart, kidney, liver, spleen, and lung weight were recorded. Blood was collected, and the samples were analyzed by blood biochemistry assays (CRE, AST, ALT, BUN).
A solution of aldehyde B82 (60 μL, 0.5 M, DMSO-d6), 4-methoxyaniline (2 μL, 6.0 M, DMSO -d6), mesitylene (100 μL, 0.1 M, DMSO - d6), and acylhydrazide A3 (100 μL, 0.1 M, DMSO -d6) was added to a mixture of DMSO -d6 (188 μL) and FP buffer D 2O (50 μL), in a 5 mm NMR tube; following incubation at room temperature, the sample was evaluated by a Bruker AV-400 instrument. […]

“Also recorded” adds a separate entry of the source.

T1 sequence (Q9GZT9 181-426): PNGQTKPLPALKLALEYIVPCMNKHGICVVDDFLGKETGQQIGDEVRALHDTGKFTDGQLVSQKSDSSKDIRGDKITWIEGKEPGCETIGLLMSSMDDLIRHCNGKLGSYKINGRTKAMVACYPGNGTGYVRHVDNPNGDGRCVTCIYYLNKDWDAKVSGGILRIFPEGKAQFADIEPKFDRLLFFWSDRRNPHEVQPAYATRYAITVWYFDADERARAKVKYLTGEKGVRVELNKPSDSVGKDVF

In the case of `O=C(N/N=C/c1cccc(O)c1Cl)c1cnc(-c2cccnn2)[nH]c1=O` [compound 17], the Ki (usually a measure of affinity in units of concentration, obtained from inhibition or displacement) in data set [1] came to 27 ± 2 nM. Further, the “H&E staining of major organs” value in the data set with ICR mice (100 mg kg−1 oral, alternate days for two weeks) is recorded as “normal architecture comparable to the vehicle”. Further, the “subacute oral toxicity findings (behavior, body weight, organ/body weight ratio, BUN, ALT, AST, CRE)” value in the data set on ICR mice (oral, every other day for 14 days, 10 or 15, 50 and 100 mg kg−1) was “no obvious abnormality; also recorded: did not exhibit any treatment-associated adverse effects”.

For the origin of these results see article PMC9827864, “In Situ Inhibitor Synthesis and Screening by Fluorescence Polarization: An Efficient Approach for Accelerating Drug Discovery” (Angewandte Chemie (International Ed. in English), 2022).
